Here are results for two molecules from ChEMBL document CHEMBL1148571, “Synthesis of 131I-labeled glucose-conjugated inhibitors of O6-methylguanine-DNA methyltransferase (MGMT) and comparison with nonconjugated inhibitors as potential tools for in vivo MGMT imaging” (J Med Chem, 2006).

This test concerns the target T1, Methylated-DNA--protein-cysteine methyltransferase (Homo sapiens) (UniProt P16455).
T1 sequence (whole entry): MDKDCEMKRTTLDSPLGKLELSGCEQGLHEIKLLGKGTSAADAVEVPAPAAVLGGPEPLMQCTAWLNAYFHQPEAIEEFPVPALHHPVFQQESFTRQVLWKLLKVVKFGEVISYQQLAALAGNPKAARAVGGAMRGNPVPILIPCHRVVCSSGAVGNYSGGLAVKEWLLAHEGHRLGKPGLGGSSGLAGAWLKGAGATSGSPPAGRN
The experiment in a line: Binding to human MGMT. Particulars: tested as the 131I-labelled form.

Regarding `Nc1nc(OCc2cccc(I)c2)c2[nH]cnc2n1`, the Activity is 97%.

In the case of `Nc1nc(OCc2ccc(I)s2)c2[nH]cnc2n1`, the Activity came to 80%.
